Data from publication PMC8878317, “Chemogenomics identifies acetyl-coenzyme A synthetase as a target for malaria treatment and prevention” (Cell Chemical Biology, 2022).

Biological target: T1, HsAcAS WT (Homo sapiens, UniProt Q9NR19)
T1 construct: made in house; host or cells: Expi293 cells (pCDNA 3.1, transient transfection)
Assay: HsAcAS Rapid-Fire QQQ mass spectrometry assay
Assay type: biochemical
Details: for IC50: approximate Km for each substrate, read-out: IC50 (μM), AcAS HsWT
Experimental: The human form of acetyl-CoA synthetase was assayed in 100 mM HEPES (pH7.4), 100 mM NaCl, 250 mM KCl, 50 mM MgCl2, 1 mM DTT, 0.005% NP40, 400 μM ATP, 70 μM acetate, 40 μM CoA and 2 nM recombinant HsAcAS. Assay ready plates containing different concentrations of inhibitor were prepared using an Echo 550 acoustic dispenser (Labcyte Inc.), dispensing 150 nL of compound per well. Assays were conducted in a total volume of 15 μL for 30 min at room temperature before being quenched with the addition of 85 μL 1% formic acid containing 0.5 μg/mL n-Propionyl coenzyme A (Sigma P5397) as an internal standard. Reaction products were detected using a RapidFire 365 system (Agilent, Santa Clara, CA) coupled with a triple quadrupole mass spectrometer 6740 (Agilent).
The sipper was washed to minimize carryover with 0.1% TFA in deionized water followed by 0.1% TFA in acetonitrile/deionized water (95%/5%, v/v). The sipper was washed to minimize carryover with deionized water followed by acetonitrile. Aspiration time, load/wash time, elution time, and re-equilibration time were set to 600, 3000, 5000, and 500 ms, respectively, with a cycle time of approximately 10 s. The triple-quadrupole mass spectrometer with electrospray ion source was operated in positive multiple reaction monitoring (MRM) mode. The detailed setting for the mass spectrometer parameters was as follows: capillary voltage, 3000 V; gas temperature, 350°C; gas flow, 7 L/min; nebulizer, 40 psi; sheath gas temperature, 300°C′ sheath gas flow, 11 L/min; and nozzle voltage, 1500 V. The MRM transitions for acetyl-CoA as a reaction product were set as 810.1/303.1 & 810.1/428.1 (quantifier & qualifier with dwell time of 50 ms, 100V fragmentor, and collision energies of 30 & 28 eV respectively) and for n-propionyl-CoA as an internal standard as 824.2/317.2 & 824.2/428.0 (quantifier & qualifier with dwell time of 50 ms, 100V fragmentor, and collision energies of 32 & 26 eV respectively). The mass resolution window for both parental and daughter ions was set at as a unit (0.7 Da). Peak areas were integrated, and area ratios of acetyl-CoA to the internal standard (n-propionyl CoA) were used for quantitation. Data were converted to % inhibition relative to the uninhibited enzyme control and fitted to Equation 3.

T1 sequence (Q9NR19 whole entry): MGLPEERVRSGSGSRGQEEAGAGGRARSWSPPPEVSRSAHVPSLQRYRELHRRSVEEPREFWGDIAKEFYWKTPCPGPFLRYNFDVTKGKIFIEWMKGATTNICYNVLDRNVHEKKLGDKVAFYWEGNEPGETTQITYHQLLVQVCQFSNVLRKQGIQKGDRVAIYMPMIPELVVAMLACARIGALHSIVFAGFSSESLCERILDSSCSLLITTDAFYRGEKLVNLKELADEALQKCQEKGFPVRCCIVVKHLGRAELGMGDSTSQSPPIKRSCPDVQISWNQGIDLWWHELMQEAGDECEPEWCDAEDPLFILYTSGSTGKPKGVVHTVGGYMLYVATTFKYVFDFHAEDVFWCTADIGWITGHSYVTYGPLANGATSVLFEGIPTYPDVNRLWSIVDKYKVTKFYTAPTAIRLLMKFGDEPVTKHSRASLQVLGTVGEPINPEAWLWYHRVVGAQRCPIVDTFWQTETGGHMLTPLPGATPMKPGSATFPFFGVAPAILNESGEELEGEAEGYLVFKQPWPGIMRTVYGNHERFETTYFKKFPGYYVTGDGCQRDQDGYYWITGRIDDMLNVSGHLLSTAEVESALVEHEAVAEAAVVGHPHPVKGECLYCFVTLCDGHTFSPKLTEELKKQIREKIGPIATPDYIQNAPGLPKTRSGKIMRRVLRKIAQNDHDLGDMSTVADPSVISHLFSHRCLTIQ

| Structure (SMILES) | IC50 [µM] | Hill, AcAS HsWT |
| --- | --- | --- |
| CCN(CC)S(=O)(=O)c1ccc(Cl)c(C(=O)Nc2ccc3nc(C)sc3c2)c1 [MMV019721] | > 100 |  |
| O=C(NNC(=O)c1csnn1)c1ccc(Cl)cc1 [MMV084978] | 18 ± 1.9 | 0.85 ± 0.07 |
